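96-well plates; 48 h exposure; 5 concentrations. Endpoints by linear interpolation between flanking doses. Not reached: highest tested concentration assigned. Here, GI50 denotes the concentration required for 50% inhibition of growth.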 Active and inactive are the calls of the source. Rule as the data show it: active = GI50 up to about 1.1 µM and inactive = higher.
Legend:
Experiment in all cases: DTP human tumour cell line panel, 48 h
SNB-75 = system: SNB-75
RPMI-8226 = system: RPMI-8226
RXF 393 = system: RXF 393
TK-10 = system: TK-10
ACHN = system: ACHN
NCI-H522 = system: NCI-H522
UO-31 = system: UO-31
SN12C = system: SN12C
M14 = system: M14
SK-MEL-28 = system: SK-MEL-28
NCI-H23 = system: NCI-H23
A498 = system: A498
HOP-92 = system: HOP-92
SNB-19 = system: SNB-19
KM12 = system: KM12
CAKI-1 = system: CAKI-1

N#CC1(Cc2ccccc2Cl)c2ccccc2C=CN1C(=O)c1ccccc1 (centres undefined)
GI50 (SNB-75): > 100 µM (inactive) | GI50 (RPMI-8226): 66.5 µM (inactive) | GI50 (RXF 393): 23.2 µM (inactive) | GI50 (TK-10): 46.8 µM (inactive) | GI50 (ACHN): 90.8 µM (inactive) | GI50 (NCI-H522): 86.1 µM (inactive) | GI50 (UO-31): 51.9 µM (inactive) | GI50 (SN12C): 77.8 µM (inactive) | GI50 (M14): > 100 µM (inactive) | GI50 (SK-MEL-28): 54.8 µM (inactive) | GI50 (NCI-H23): 28.2 µM (inactive) | GI50 (A498): > 100 µM (inactive) | GI50 (HOP-92): 52.7 µM (inactive) | GI50 (SNB-19): > 100 µM (inactive) | GI50 (KM12): > 100 µM (inactive)

FC(F)(F)C1(Cl)C(c2ccccc2)=C1c1ccccc1
GI50 (SNB-75): > 10 µM (inactive) | GI50 (RPMI-8226): 29.7 µM (inactive) | GI50 (RXF 393): 13.3 µM (inactive) | GI50 (TK-10): 20.9 µM (inactive) | GI50 (ACHN): 16.6 µM (inactive) | GI50 (UO-31): 17.9 µM (inactive) | GI50 (SN12C): 15.6 µM (inactive) | GI50 (M14): 12.8 µM (inactive) | GI50 (SK-MEL-28): 14.9 µM (inactive) | GI50 (NCI-H23): 15.7 µM (inactive) | GI50 (HOP-92): 14.8 µM (inactive) | GI50 (SNB-19): 17.9 µM (inactive) | GI50 (KM12): 15.6 µM (inactive) | GI50 (CAKI-1): 12.6 µM (inactive)

O=C(CCc1n[nH]c(=S)o1)Nc1ccc(Cl)cc1Cl
GI50 (SNB-75): > 100 µM (inactive) | GI50 (RPMI-8226): 16.9 µM (inactive) | GI50 (TK-10): > 100 µM (inactive) | GI50 (ACHN): > 100 µM (inactive) | GI50 (NCI-H522): 61.8 µM (inactive) | GI50 (UO-31): > 100 µM (inactive) | GI50 (SN12C): > 100 µM (inactive) | GI50 (M14): > 100 µM (inactive) | GI50 (SK-MEL-28): > 100 µM (inactive) | GI50 (NCI-H23): > 100 µM (inactive) | GI50 (A498): > 100 µM (inactive) | GI50 (HOP-92): 68.7 µM (inactive) | GI50 (SNB-19): > 100 µM (inactive) | GI50 (KM12): > 100 µM (inactive) | GI50 (CAKI-1): > 100 µM (inactive)

CN(C(=O)/C=C/c1ccccc1)C1C2CN3CCC(O2)C13 (centres undefined)
GI50 (SNB-75): > 100 µM (inactive) | GI50 (RXF 393): > 100 µM (inactive) | GI50 (TK-10): > 100 µM (inactive) | GI50 (ACHN): > 100 µM (inactive) | GI50 (NCI-H522): > 100 µM (inactive) | GI50 (UO-31): > 100 µM (inactive) | GI50 (SN12C): > 100 µM (inactive) | GI50 (M14): > 100 µM (inactive) | GI50 (SK-MEL-28): > 100 µM (inactive) | GI50 (NCI-H23): > 100 µM (inactive) | GI50 (A498): > 100 µM (inactive) | GI50 (SNB-19): > 100 µM (inactive) | GI50 (KM12): > 100 µM (inactive) | GI50 (CAKI-1): > 100 µM (inactive)

[N-]=[N+]=NC1(c2ccccc2)C(=O)C(Cl)=C(c2ccccc2)N(c2ccccc2)C1=O (centres undefined)
GI50 (SNB-75): > 100 µM (inactive) | GI50 (TK-10): > 100 µM (inactive) | GI50 (ACHN): > 100 µM (inactive) | GI50 (NCI-H522): 41.2 µM (inactive) | GI50 (UO-31): 97.3 µM (inactive) | GI50 (SN12C): > 100 µM (inactive) | GI50 (M14): > 100 µM (inactive) | GI50 (SK-MEL-28): > 100 µM (inactive) | GI50 (NCI-H23): 64.9 µM (inactive) | GI50 (A498): > 100 µM (inactive) | GI50 (HOP-92): > 100 µM (inactive) | GI50 (SNB-19): > 100 µM (inactive) | GI50 (KM12): > 100 µM (inactive) | GI50 (CAKI-1): > 100 µM (inactive)

COc1cc2c(c(OC)c1OC)-c1ccc(SC)c(=O)cc1[C@@H](NC(=O)c1ccc(OC(C)=O)cc1)CC2
GI50 (SNB-75): 0.0332 µM (active) | GI50 (RPMI-8226): 0.0327 µM (active) | GI50 (RXF 393): 0.018 µM (active) | GI50 (TK-10): 0.0454 µM (active) | GI50 (ACHN): 0.0342 µM (active) | GI50 (NCI-H522): 0.01 µM (active) | GI50 (UO-31): 0.433 µM (active) | GI50 (SN12C): 0.0324 µM (active) | GI50 (M14): 0.0215 µM (active) | GI50 (SK-MEL-28): 0.0553 µM (active) | GI50 (NCI-H23): 0.0212 µM (active) | GI50 (A498): 0.0227 µM (active) | GI50 (HOP-92): 0.00257 µM (active) | GI50 (KM12): 0.0198 µM (active) | GI50 (CAKI-1): 33.9 µM (inactive)

C=CC[P@]1(=O)O[C@H](c2ccccc2)[C@H](C)N1C
GI50 (SNB-75): > 100 µM (inactive) | GI50 (RPMI-8226): > 100 µM (inactive) | GI50 (RXF 393): > 100 µM (inactive) | GI50 (TK-10): > 100 µM (inactive) | GI50 (ACHN): > 100 µM (inactive) | GI50 (UO-31): > 100 µM (inactive) | GI50 (SN12C): > 100 µM (inactive) | GI50 (M14): > 100 µM (inactive) | GI50 (SK-MEL-28): > 100 µM (inactive) | GI50 (NCI-H23): > 100 µM (inactive) | GI50 (A498): > 100 µM (inactive) | GI50 (SNB-19): > 100 µM (inactive) | GI50 (KM12): > 100 µM (inactive)

CC(C)OP(=O)(OC(C)C)/C(=N/Nc1ccc([N+](=O)[O-])cc1)NNC(=O)c1ccccc1
GI50 (SNB-75): 73.5 µM (inactive) | GI50 (RPMI-8226): 29.7 µM (inactive) | GI50 (TK-10): > 100 µM (inactive) | GI50 (ACHN): 82.4 µM (inactive) | GI50 (NCI-H522): 42.4 µM (inactive) | GI50 (UO-31): 41.5 µM (inactive) | GI50 (SN12C): > 100 µM (inactive) | GI50 (M14): 33.2 µM (inactive) | GI50 (SK-MEL-28): 40.6 µM (inactive) | GI50 (NCI-H23): 24.7 µM (inactive) | GI50 (HOP-92): 24.9 µM (inactive) | GI50 (SNB-19): 73.8 µM (inactive) | GI50 (KM12): 38.3 µM (inactive) | GI50 (CAKI-1): 76.6 µM (inactive)

N[C@H](C(=O)O)[C@H](Cl)CC(=O)O
GI50 (SNB-75): > 100 µM (inactive) | GI50 (RXF 393): > 100 µM (inactive) | GI50 (TK-10): > 100 µM (inactive) | GI50 (ACHN): > 100 µM (inactive) | GI50 (NCI-H522): > 100 µM (inactive) | GI50 (UO-31): > 100 µM (inactive) | GI50 (SN12C): > 100 µM (inactive) | GI50 (M14): > 100 µM (inactive) | GI50 (SK-MEL-28): > 100 µM (inactive) | GI50 (NCI-H23): > 100 µM (inactive) | GI50 (A498): > 100 µM (inactive) | GI50 (HOP-92): > 100 µM (inactive) | GI50 (SNB-19): > 100 µM (inactive) | GI50 (KM12): > 100 µM (inactive) | GI50 (CAKI-1): > 100 µM (inactive)

CCOC(=O)/C(=C/c1ccc(OC)cc1)N(CC)CC
GI50 (RPMI-8226): > 100 µM (inactive) | GI50 (TK-10): > 100 µM (inactive) | GI50 (ACHN): > 100 µM (inactive) | GI50 (NCI-H522): > 100 µM (inactive) | GI50 (UO-31): > 100 µM (inactive) | GI50 (SN12C): > 100 µM (inactive) | GI50 (M14): > 100 µM (inactive) | GI50 (SK-MEL-28): > 100 µM (inactive) | GI50 (NCI-H23): > 100 µM (inactive) | GI50 (A498): 24.5 µM (inactive) | GI50 (HOP-92): > 100 µM (inactive) | GI50 (SNB-19): > 100 µM (inactive) | GI50 (KM12): > 100 µM (inactive) | GI50 (CAKI-1): > 100 µM (inactive)

COc1cc2c(cc1OC)-c1c3cc(O)ccc3nn[n+]1CC2
GI50 (SNB-75): > 100 µM (inactive) | GI50 (RPMI-8226): > 100 µM (inactive) | GI50 (RXF 393): > 100 µM (inactive) | GI50 (TK-10): > 100 µM (inactive) | GI50 (NCI-H522): > 100 µM (inactive) | GI50 (SN12C): > 100 µM (inactive) | GI50 (M14): > 100 µM (inactive) | GI50 (SK-MEL-28): > 100 µM (inactive) | GI50 (NCI-H23): > 100 µM (inactive) | GI50 (SNB-19): > 100 µM (inactive) | GI50 (KM12): > 100 µM (inactive)

CC(=O)N(C)OC(=O)CC(=O)c1ccccc1
GI50 (SNB-75): 76.9 µM (inactive) | GI50 (RPMI-8226): > 100 µM (inactive) | GI50 (RXF 393): > 100 µM (inactive) | GI50 (TK-10): > 100 µM (inactive) | GI50 (ACHN): > 100 µM (inactive) | GI50 (NCI-H522): > 100 µM (inactive) | GI50 (UO-31): > 100 µM (inactive) | GI50 (SN12C): > 100 µM (inactive) | GI50 (M14): > 100 µM (inactive) | GI50 (SK-MEL-28): > 100 µM (inactive) | GI50 (NCI-H23): > 100 µM (inactive) | GI50 (HOP-92): > 100 µM (inactive) | GI50 (SNB-19): > 100 µM (inactive) | GI50 (KM12): > 100 µM (inactive) | GI50 (CAKI-1): > 100 µM (inactive)

O=C(O)C(CS)NCc1c2ccccc2[n+]([O-])c2ccccc12 (centres undefined)
GI50 (SNB-75): 24 µM (inactive) | GI50 (RPMI-8226): 26.3 µM (inactive) | GI50 (TK-10): 95.1 µM (inactive) | GI50 (ACHN): 33.4 µM (inactive) | GI50 (NCI-H522): 94 µM (inactive) | GI50 (UO-31): 17.5 µM (inactive) | GI50 (SN12C): 34.4 µM (inactive) | GI50 (M14): 46.1 µM (inactive) | GI50 (SK-MEL-28): 35.2 µM (inactive) | GI50 (NCI-H23): 31 µM (inactive) | GI50 (A498): 68.7 µM (inactive) | GI50 (HOP-92): 2.49 µM (inactive) | GI50 (SNB-19): 38 µM (inactive) | GI50 (KM12): 31.2 µM (inactive) | GI50 (CAKI-1): 83.6 µM (inactive)

CC(C)(C)NNC(=O)CCn1[nH]c(=O)c(Cl)c(Cl)c1=O
GI50 (SNB-75): > 100 µM (inactive) | GI50 (RPMI-8226): > 100 µM (inactive) | GI50 (RXF 393): > 100 µM (inactive) | GI50 (TK-10): > 100 µM (inactive) | GI50 (ACHN): > 100 µM (inactive) | GI50 (NCI-H522): > 100 µM (inactive) | GI50 (UO-31): > 100 µM (inactive) | GI50 (SN12C): > 100 µM (inactive) | GI50 (M14): > 100 µM (inactive) | GI50 (SK-MEL-28): > 100 µM (inactive) | GI50 (NCI-H23): > 100 µM (inactive) | GI50 (A498): 10.7 µM (inactive) | GI50 (SNB-19): > 100 µM (inactive) | GI50 (KM12): > 100 µM (inactive) | GI50 (CAKI-1): > 100 µM (inactive)
